# In patent publication US6498166B1, “Pyrazolopyridines” (SmithKline Beecham Corporation, priority 1999, dated 2002):
# Tests used:
# [1] = molecular target: T1, human COX-1 (Homo sapiens, UniProt P23219); experiment: Inhibition of PGE2 release in COS cells stably transfected with human COX-1; assay type: cell-based; details: COS cells transfected with human COX-1; 1 hour preincubation, 30 μM arachidonic acid for 15 minutes, PGE2 by enzyme immunoassay
# T1 construct: expressed in transfected cells; host or cells: COS cells (stably transfected)
# T1 sequence (P23219 24-599): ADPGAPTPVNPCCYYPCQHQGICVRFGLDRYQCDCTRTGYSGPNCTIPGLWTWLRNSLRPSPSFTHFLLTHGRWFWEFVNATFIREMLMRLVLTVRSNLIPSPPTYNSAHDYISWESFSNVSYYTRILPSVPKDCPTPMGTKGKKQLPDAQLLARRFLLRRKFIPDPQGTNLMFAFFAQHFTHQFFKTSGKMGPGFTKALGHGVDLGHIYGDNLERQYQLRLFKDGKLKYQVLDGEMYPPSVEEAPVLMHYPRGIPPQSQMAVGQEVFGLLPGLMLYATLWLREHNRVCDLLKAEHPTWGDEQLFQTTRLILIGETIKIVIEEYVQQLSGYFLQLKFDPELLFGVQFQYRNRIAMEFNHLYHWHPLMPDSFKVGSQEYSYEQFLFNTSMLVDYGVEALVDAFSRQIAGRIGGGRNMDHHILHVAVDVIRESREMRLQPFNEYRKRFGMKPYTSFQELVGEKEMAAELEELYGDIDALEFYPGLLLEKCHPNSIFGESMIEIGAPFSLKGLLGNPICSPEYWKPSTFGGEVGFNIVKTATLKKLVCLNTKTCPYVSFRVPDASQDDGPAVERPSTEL
# Method: (§1) Inhibitory activity against human COX-1 and COX-2 was assessed in COS cells which had been stably transfected with cDNA for human COX-1 and human COX-2. 24 Hours prior to experiment, COS cells were transferred from the 175 cm^2 flasks in which they were grown, onto 24-well cell culture plates using the following procedure. The incubation medium (Dulbecco's modified eagles medium (DMEM) supplemented with heat-inactivated foetal calf serum (10% v/v), penicillin (100 IU/ml), streptomycin (100μg/ml) and geneticin (600 μg/ml)) was removed from a flask of confluent cells (1 flask at confluency contains approximately 1×10^7 cells). 10 ml of phosphate buffered saline (PBS) was added to the flask to wash the cells. Having discarded the PBS, cells were then rinsed in 10 ml trypsin for 20 seconds, after which the trypsin was removed and the flask placed in an incubator (37°) for 1-2 minutes until cells became detached from the flask. The flask was then removed from the incubator and cells resuspended in 10 ml of fresh incubation medium. The contents of the flask was transferred to a 250 ml sterile container and the volume of incubation medium subsequently made up to 100 ml. 1 ml cell suspension was pipetted into each well of 4×24-well cell culture plates. The plates were then placed in an incubator (37° C., 95% air/5% CO2) overnight. If more than 1 flask of cells were required, the cells from the individual flasks were combined before being dispensed into the 24-well plates.
# (§2) Following the overnight incubation, the incubation medium was completely removed from the 24-well cell culture plates and replaced with 250 μl fresh DMEM (37° C.). The test compounds were made up to 250× the required test concentration in DMSO and were added to the wells in a volume of 1 μl. Plates were then mixed gently by swirling and then placed in an incubator for 1 hour (37° C., 95% air/5% CO2). Following the incubation period, 10 μl of arachidonic acid (750 μM) was added to each well to give a final arachidonic acid concentration of 30 μM. Plates were then incubated for a further 15 minutes, after which the incubation medium was removed from each well of the plates and stored at −20° C., prior to determination of prostaglandin E2 (PGE2) levels using enzyme immunoassay. The inhibitory potency of the test compound was expressed as an IC50 value, which is defined as the concentration of the compound required to inhibit the PGE2 release from the cells by 50%. The selectivity ratio of inhibition of COX-1 versus COX-2 was calculated by comparing respective IC50 values. The following IC50 values for inhibition of COX-2 and COX-1 were obtained for compounds of the invention: […]
# [2] = molecular target: T2, human COX-2 (Homo sapiens, UniProt P35354); experiment: Inhibition of PGE2 release in COS cells stably transfected with human COX-2; assay type: cell-based; details: COS cells transfected with human COX-2; 1 hour preincubation, 30 μM arachidonic acid for 15 minutes, PGE2 by enzyme immunoassay
# T2 construct: expressed in transfected cells; host or cells: COS cells (stably transfected)
# T2 sequence (P35354 18-604): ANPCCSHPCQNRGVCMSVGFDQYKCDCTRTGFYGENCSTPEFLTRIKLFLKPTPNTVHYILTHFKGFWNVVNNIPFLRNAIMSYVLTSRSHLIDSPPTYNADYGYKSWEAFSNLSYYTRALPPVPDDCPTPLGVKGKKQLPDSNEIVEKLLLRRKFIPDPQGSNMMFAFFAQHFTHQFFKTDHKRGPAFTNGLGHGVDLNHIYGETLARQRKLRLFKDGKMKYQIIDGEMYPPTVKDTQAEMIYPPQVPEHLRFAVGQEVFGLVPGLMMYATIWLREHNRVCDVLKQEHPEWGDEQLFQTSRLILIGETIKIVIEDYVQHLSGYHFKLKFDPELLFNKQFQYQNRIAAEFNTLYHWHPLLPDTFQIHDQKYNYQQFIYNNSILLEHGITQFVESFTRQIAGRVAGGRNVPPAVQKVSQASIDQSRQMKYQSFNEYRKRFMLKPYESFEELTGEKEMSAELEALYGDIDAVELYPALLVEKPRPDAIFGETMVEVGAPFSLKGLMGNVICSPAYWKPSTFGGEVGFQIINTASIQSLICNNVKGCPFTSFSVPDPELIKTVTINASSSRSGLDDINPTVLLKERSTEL
# Method: as §1, §2
Structure (SMILES),IC50 [1] [µM],IC50 [2] [nM]
"NS(=O)(=O)c1ccc(-c2c(-c3ccccc3)nn3cc(Cl)ccc23)cc1 [8(iii), 4-[6-Chloro-2-phenyl-pyrazolo[1,5-a]pyridin-3-yl]benzenesulfonamide]",> 100,5
"CS(=O)(=O)c1ccc(-c2c(-c3ccc(F)cc3)nn3cc(Br)ccc23)cc1 [4(iii), 6-Bromo-2-(4-fluorophenyl)-3-[4-(methylsulfonyl)phenyl]pyrazolo[1,5-a]pyridine]",> 100,5
"NS(=O)(=O)c1ccc(-c2c(-c3ccc(F)cc3)nn3cc(Cl)ccc23)cc1 [Example 5(vi), 4-[6-Chloro-2-(4-fluorophenyl)pyrazolo[1,5-a]pyridin-3-yl]benzenesulfonamide]",20.9,21
"CS(=O)(=O)c1ccc(-c2c(-c3ccc(F)cc3)nn3cc(C#N)ccc23)cc1 [Example 2, 2-(4-Fluorophenyl)-3-[4-(methylsulfonyl)phenyl]pyrazolo[1,5-a]pyridine-6-carbonitrile]",> 100,12
"CCOc1ccc(-c2nn3cc(Cl)ccc3c2-c2ccc(S(N)(=O)=O)cc2)cc1 [Example 6, 4-[6-Chloro-2-(4-ethoxyphenyl)pyrazolo[1,5-a]pyridin-3-yl]benzenesulfonamide]",> 100,12

# Now from value to compound:
IC50 [1] [µM],IC50 [2] [nM],Structure (SMILES)
20.9,21,"N#Cc1ccc2c(-c3ccc(S(N)(=O)=O)cc3)c(-c3ccc(F)cc3)nn2c1 [Example 1(iv), 4-[6-Cyano-2-(4-fluorophenyl)pyrazolo[1,5-a]pyridin-3-yl]benzenesulfonamide]"
6.76,1,"NS(=O)(=O)c1ccc(-c2c(-c3ccc(F)cc3)nn3cc(Br)ccc23)cc1 [Example 3(vi), 4-[6-Bromo-2-(4-fluorophenyl)pyrazolo[1,5-a]pyridin-3-yl]benzenesulfonamide]"
6.76,1,"NS(=O)(=O)c1ccc(-c2c(-c3cccc(F)c3)nn3cc(Cl)ccc23)cc1 [Example 7, 4-[6-Chloro-2-(3-fluorophenyl)pyrazolo[1,5-a]pyridin-3-yl]benzenesulfonamide]"
